Test results taken from patent US9750724B2, “Use of an aromatase inhibitor for the treatment of hypogonadism and related diseases” (Mereo BioPharma 2 Limited, priority 2011, dated 2017).

Experiments:
[1] = Pharmacokinetics after oral administration to rats; format: in vivo, rat
From the text: In one embodiment, the compound may even show an apparent elimination half-life of at least about 30 days or even at least 35 days. […] The results observed were completely unexpected in view of the previous rat experiments showing a half-life of about a week [Batzl-Hartmann et al, 1994 and Bhatnagar et al, 1996]. This surprising extremely long half-life of the compound in humans gives rise to the particular dosing scheduled of the invention.

[2] = Single ascending dose study in pre- and post-menopausal women, pharmacokinetics; format: in vivo, human; conditions: for AUC(0-t): AUC (0-tlast) Mean; for Cmax: Cmax Mean
From the text: The drug concentration in plasma and/or serum samples can be determined by a number of different ways, e.g. HPLC or LC-MS/MS analyses. […]
(§1) A minimal toxic dose (MTD) was not reached. […] Table 3 presents the PK parameters based on preliminary analysis of the concentration-time profile obtained from this study.

[3] = Single ascending dose study in women, safety and bone density (DEXA); format: in vivo; conditions: single doses 0.01 mg through 20 mg, post-menopausal women
Description: Patients received either 0.1 mg, 1 mg, and 10 mg drug substance containing hard gelatin capsules or appropriate matching placebo capsules.
as §1

[4] = test system: serum testosterone and estradiol; assay: 12 week open label dose-finding study (Part 1) in obese hypogonadotropic hypogonadal men; format: in vivo, human
From the text: The study is designed as a 2-part study, with Part 1 being open-label to best determine the appropriate dose levels to use in Part 2, which has a randomized, double-blind, placebo controlled design.
As set out above, this is a two-part study in obese, hypogonadotropic hypogonadal (OHH) men, wherein Part 1 is a single group, open label, non-randomized study establishing appropriate dosing. After all subjects have successfully completed 4 weeks of treatment, they continue for up to a total of 12 weeks of treatment. Then Part 2 follows as a parallel group, randomized, double-blind, placebo-controlled design, for 12 weeks of treatment, with an interim analysis after 4 weeks of treatment. Both Parts of the study have up to a 28 day screening period, a single baseline day, a 12 week treatment period (11 weekly doses), followed by a 3 month follow-up period.
Thus, for Part 1 of the study, it was decided to start with 0.01 mg as the loading dose, assess the testosterone response at 5 or 6 days after a single dose, and adjust the next weekly dose up or down based on the acute testosterone response. The weekly maintenance dose is not expected to exceed 0.5 mg. For at least the first 4 weeks of treatment, subject's sex steroid levels are measured prior to their subsequent dosing. The subsequent dose is the adjusted based on the prior response.
If free testosterone is above normal, the Week 2 dose will be 1/10 (0.001 mg) of the loading dose. If free testosterone is below normal, the Week 2 dose will be ½ of the loading dose (0.005 mg). Subsequent weekly doses are adjusted on a ½ log order to achieve normalization of free testosterone levels.
Assessments and evaluations: The following assessments will be performed during the study: • 1. Background, demographic and administrative assessments • Inclusion/exclusion criteria; Relevant medical history/Current medical conditions • Demography • Physical examination, including digital prostate examination • International Prostate Symptom Score (IPSS) • Hepatitis screen, HIV screen • Alcohol test, Drug screen • Prolactin, ferritin and thyroid stimulating hormone (TSH) • Drug administration: each time study drug is administered • Study Completion information • Comments • 2. Safety and tolerability assessments • Vital signs and body measurements • Body height (BMI will be calculated) • Body weight* • Body temperature • Blood pressure, pulse rate • ECG evaluations • Hematology; Blood chemistry; Urinalysis • Prostate specific antigen (PSA) • Adverse events: from time of first administration of study drug until Study Completion. Adverse events occurring before starting study treatment but after signing the informed consent form are recorded on the Medical History/Current Medical Conditions Case Report Form. • Serious adverse events: from time of consent until 30 days after Study Completion • Concomitant medications/Significant non-drug therapies: Refer to entry criteria and Concomitant medication for details of recording requirements for allowed and restricted medications during the study. • 3. Pharmacokinetic (PK) blood assessments: PK samples will be collected on multiple occasions during the treatment phase of the study. PK assessments will also be collected every 6 weeks during the safety follow-up period. […]

[5] = target: T1, human placental microsomal aromatase (Homo sapiens, UniProt P11511); conditions: microsomal fraction of human placenta; Batzl-Hartmann et al, 1994; cited from earlier work
T1 construct: from tissue; host or cells: human placenta, microsomal fraction
T1 sequence (P11511 1-503): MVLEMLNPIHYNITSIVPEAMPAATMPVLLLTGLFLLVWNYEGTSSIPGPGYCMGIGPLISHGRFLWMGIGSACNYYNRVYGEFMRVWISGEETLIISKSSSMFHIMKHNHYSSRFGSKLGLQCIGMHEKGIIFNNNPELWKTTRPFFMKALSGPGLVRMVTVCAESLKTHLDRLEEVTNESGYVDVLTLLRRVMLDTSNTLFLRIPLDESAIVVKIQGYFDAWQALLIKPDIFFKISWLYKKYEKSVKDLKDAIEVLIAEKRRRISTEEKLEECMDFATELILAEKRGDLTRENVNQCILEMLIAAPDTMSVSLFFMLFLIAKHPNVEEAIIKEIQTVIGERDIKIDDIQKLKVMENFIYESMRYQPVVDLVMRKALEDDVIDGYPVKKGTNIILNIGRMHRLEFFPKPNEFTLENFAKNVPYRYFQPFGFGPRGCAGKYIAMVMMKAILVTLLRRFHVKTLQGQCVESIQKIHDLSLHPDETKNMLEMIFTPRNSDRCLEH

[6] = female, human, in vivo, 0.01 mg
[7] = female, human, in vivo, 0.03 mg
[8] = weekly oral doses 0.003 mg to 5 mg

SMILES: N#Cc1ccc(C(F)(c2ccc(C#N)cc2)n2cncn2)cc1 [CGP47645, 4,4′-[fluoro-(1-H-1,2,4-triazol-1-yl)methylene]bisbenzonitrile]
- exposure (AUC) versus dose [1]: proportional to the administered dose
- half-life ([1]; rat, in vivo, read-out: T½ (converted)): 75 h
- Tmax [2, 6]: 1 h
- AUC(0-t) [2, 6]: 1.4 ng·h/mL
- Cmax [2, 6]: 0.2 ng/mL
- half-life ([2]; female, human, in vivo, 0.01 mg, T1/2 Mean): 55.2 h
- AUC(0-t) [2, 7]: 24.1 ng·h/mL
- Cmax [2, 7]: 0.4 ng/mL
- half-life ([2]; female, human, in vivo, 0.03 mg, T1/2 Mean): 396 h
- T1/2 Mean ([2]; female, human, in vivo, 0.1 mg): 564 h
- Tmax ([2]; female, human, in vivo, 0.1 mg): 1 h
- Tmax Median ([2]; female, human, in vivo, 0.1 mg): 1 h
- AUC(0-t) ([2]; female, human, in vivo, 0.1 mg): 123 ng·h/mL
- Cmax ([2]; female, human, in vivo, 0.1 mg): 1.8 ng/mL
- half-life ([2]; female, human, in vivo, 0.1 mg, T1/2 Mean): 437 h
- Tmax ([2]; female, human, in vivo, 0.3 mg): 1 h
- AUC(0-t) ([2]; female, human, in vivo, 0.3 mg): 605 ng·h/mL
- Cmax ([2]; female, human, in vivo, 0.3 mg): 5.1 ng/mL
- half-life ([2]; female, human, in vivo, 0.3 mg, T1/2 Mean): 564 h
- Tmax ([2]; female, human, in vivo, 1 mg): 1 h
- AUC(0-t) ([2]; female, human, in vivo, 1 mg): 3200 ng·h/mL
- Cmax ([2]; female, human, in vivo, 1 mg): 12.8 ng/mL
- half-life ([2]; female, human, in vivo, 1 mg, T1/2 Mean): 538 h
- Tmax ([2]; female, human, in vivo, 3 mg): 1 h
- AUC(0-t) ([2]; female, human, in vivo, 3 mg): 10100 ng·h/mL
- Cmax ([2]; female, human, in vivo, 3 mg): 38.4 ng/mL
- half-life ([2]; female, human, in vivo, 3 mg, T1/2 Mean): 600 h
- Tmax ([2]; female, human, in vivo, 10 mg): 2 h
- AUC(0-t) ([2]; female, human, in vivo, 10 mg): 41700 ng·h/mL
- Cmax ([2]; female, human, in vivo, 10 mg): 124 ng/mL
- half-life ([2]; female, human, in vivo, 10 mg, T1/2 Mean): 655 h
- Tmax ([2]; female, human, in vivo, 20 mg): 2 h
- AUC(0-t) ([2]; female, human, in vivo, 20 mg): 76700 ng·h/mL
- Cmax ([2]; female, human, in vivo, 20 mg): 270 ng/mL
- half-life ([2]; female, human, in vivo, 20 mg, T1/2 Mean): 646 h
- half-life ([2]; female, human, in vivo, half life): ~600 h
- half-life ([2]; female, human, in vivo, half-life in serum): 528 to 696 h
- Tmax ([2]; female, human, in vivo, po): 0.5 to 2 h
- median Tmax ([2]; female, human, in vivo, po): ≤ 1 h
- half-life ([2]; female, human, in vivo, po, half-life): 552 to 648 h
- differences in pharmacokinetics between post- and pre-menopausal women ([2]; in vivo): No differences
- dose proportionality of pharmacokinetics ([2]; single doses 0.01 to 20 mg, women): dose proportional pharmacokinetics
- minimal toxic dose (MTD) [3]: not reached
- tolerability ([4]; 14 obese hypogonadal men, weekly oral doses 0.003 mg to 5 mg, 12 weeks): tolerated CGP47645 well
- testosterone normalization (RIA) ([4]; 14 obese hypogonadal men, weekly oral doses 0.003 mg to 5 mg, during treatment): rose in all men individually into the normal range
- average serum estradiol at week 12 ([4]; baseline 24±4.9 pg/mL, LC-MS): 18 ± 9.4 pg/mL
- average testosterone at week 12 ([4]; baseline 250±22.3 ng/dL, RIA): 550 ± 191.8 ng/dL
- average change of testosterone from baseline to week 12 [4, 8]: approximately 2 fold
- reduction of serum estradiol (LC-MS) [4, 8]: 30-50%
- mode of aromatase inhibition [5]: competitive inhibitor
